Measurements published in the NIST ThermoML archive (doi:10.1021/acs.jced.6b00269).
Numbers after ± are expanded uncertainties.

Conditions: for viscosity / mass density: 101.33 kPa, Liquid; for viscosity: Cone and plate viscometry; for mass density: Vibrating tube method; for Glass transition temperature: DSC

Structure (SMILES) | viscosity (278.15 K) [mPa·s] | viscosity (283.15 K) [mPa·s] | mass density (283.15 K) [kg/m3] | viscosity (288.15 K) [mPa·s] | mass density (288.15 K) [kg/m3] | viscosity (293.15 K) [mPa·s] | mass density (293.15 K) [kg/m3] | mass density (295.15 K) [kg/m3] | viscosity (298.15 K) [mPa·s] | mass density (298.15 K) [kg/m3] | viscosity (303.15 K) [mPa·s] | mass density (303.15 K) [kg/m3] | viscosity (308.15 K) [mPa·s] | mass density (308.15 K) [kg/m3] | viscosity (313.15 K) [mPa·s] | mass density (313.15 K) [kg/m3] | mass density (318.15 K) [kg/m3] | mass density (323.15 K) [kg/m3] | mass density (328.15 K) [kg/m3] | mass density (333.15 K) [kg/m3] | further results
CCCCCCCCCCCCCC[P+](CCCCCC)(CCCCCC)CCCCCC.O=[N+]([O-])c1c[n-]cn1 [trihexyl(tetradecyl)phosphonium 4-nitroimidazolide] | 3380 ± 340 | 2220 ± 210 | 949.4 ± 4.9 | 1500 ± 140 | 946.3 ± 4.9 | 1040 ± 91 | 943.1 ± 4.8 | 941.8 ± 4.8 | 735 ± 61 | 940.1 ± 4.8 | 533 ± 42 | 937.1 ± 4.8 | 396 ± 30 | 934.2 ± 4.8 | 298 ± 22 | 931.3 ± 4.7 | 928.4 ± 4.7 | 925.4 ± 4.7 | 922.6 ± 4.7 | 919.7 ± 4.7 | viscosity (318.15 K): 230 ± 16 mPa·s; viscosity (323.15 K): 180 ± 13 mPa·s; viscosity (328.15 K): 144 ± 10 mPa·s; viscosity (333.15 K): 117 ± 8 mPa·s; viscosity (338.15 K): 96 ± 6 mPa·s; mass density (338.15 K): 916.9 ± 4.6 kg/m3; viscosity (343.15 K): 80 ± 5 mPa·s; mass density (343.15 K): 914 ± 4.6 kg/m3; mass density (348.15 K): 911.2 ± 4.6 kg/m3; mass density (353.15 K): 908.3 ± 4.6 kg/m3; Glass transition temperature: -66 ± 2 °C
CCCCCCCCCCCCCC[P+](CCCCCC)(CCCCCC)CCCCCC.O=S(=O)([N-]S(=O)(=O)C(F)(F)F)C(F)(F)F | 1210 ± 110 | 841 ± 71 | 1076.1 ± 6.3 | 594 ± 48 | 1072.4 ± 6.2 | 430 ± 33 | 1068.8 ± 6.2 | 1067.3 ± 6.2 | 318 ± 24 | 1065.1 ± 6.1 | 241 ± 17 | 1061.5 ± 6.1 | 185 ± 13 | 1057.9 ± 6.1 | 145 ± 10 | 1054.4 ± 6 | 1050.8 ± 6 | 1047.3 ± 5.9 | 1043.7 ± 5.9 | 1040.1 ± 5.9 | viscosity (318.15 K): 115 ± 8 mPa·s; viscosity (323.15 K): 92 ± 6 mPa·s; viscosity (328.15 K): 76 ± 5 mPa·s; viscosity (333.15 K): 63 ± 4 mPa·s; mass density (338.15 K): 1036.6 ± 5.8 kg/m3; mass density (343.15 K): 1033 ± 5.8 kg/m3; mass density (348.15 K): 1029.5 ± 5.7 kg/m3; mass density (353.15 K): 1026 ± 5.7 kg/m3; Glass transition temperature: -82 ± 2 °C
CCCCCCCCSC(N(C)C)=[N+](C)C.O=S(=O)([N-]S(=O)(=O)C(F)(F)F)C(F)(F)F | 356 ± 27 | 254 ± 19 | 1309.6 ± 9.4 | 186 ± 13 | 1305.2 ± 9.3 | 140 ± 10 | 1301 ± 9.2 | 1299.3 ± 9.2 | 108 ± 7 | 1296.7 ± 9.2 | 85 ± 6 | 1292.4 ± 9.1 | 69 ± 5 | 1288.2 ± 9 | 56 ± 4 | 1284 ± 9 | 1279.7 ± 8.9 | 1275.5 ± 8.9 | 1271.3 ± 8.8 | 1267.1 ± 8.8 | mass density (338.15 K): 1262.9 ± 8.7 kg/m3; mass density (343.15 K): 1258.7 ± 8.6 kg/m3; mass density (348.15 K): 1254.6 ± 8.6 kg/m3; mass density (353.15 K): 1250.4 ± 8.5 kg/m3; Glass transition temperature: -82 ± 2 °C
CCCCCCn1cc[n+](C)c1C.O=[N+]([O-])c1cn[n-]c1 [1-hexyl-2,3-dimethylimidazolium 4-nitropyrazolide] | 14600 ± 1800 | 6910 ± 800 | 1129.4 ± 6.9 | 3490 ± 370 | 1126 ± 6.9 | 1910 ± 180 | 1122.4 ± 6.8 | 1121 ± 6.8 | 1110 ± 100 | 1118.9 ± 6.8 | 691 ± 58 | 1115.7 ± 6.8 | 450 ± 35 | 1112.4 ± 6.7 | 303 ± 23 | 1109.2 ± 6.7 | 1106 ± 6.6 | 1102.8 ± 6.6 | 1099.7 ± 6.6 | 1096.6 ± 6.5 | viscosity (318.15 K): 213 ± 15 mPa·s; viscosity (323.15 K): 147 ± 10 mPa·s; viscosity (328.15 K): 112 ± 8 mPa·s; viscosity (333.15 K): 87 ± 6 mPa·s; viscosity (338.15 K): 69 ± 5 mPa·s; mass density (338.15 K): 1093.5 ± 6.5 kg/m3; viscosity (343.15 K): 56 ± 4 mPa·s; mass density (343.15 K): 1090.4 ± 6.4 kg/m3; mass density (348.15 K): 1087.4 ± 6.4 kg/m3; mass density (353.15 K): 1084.3 ± 6.4 kg/m3; Glass transition temperature: -47 ± 2 °C
CCCC[P+](CC)(CC)CC.O=[N+]([O-])c1cn[n-]c1 [butyltriethylphosphonium 4-nitropyrazolide] | 840 ± 71 | 551 ± 44 | 1087.9 ± 6.4 | 372 ± 28 | 1084.7 ± 6.4 | 261 ± 19 | 1081.5 ± 6.3 | 1080.3 ± 6.3 | 189 ± 13 | 1078.4 ± 6.3 | 141 ± 10 | 1075.4 ± 6.3 | 108 ± 7 | 1072.4 ± 6.2 | 85 ± 6 | 1069.3 ± 6.2 | 1066.3 ± 6.2 | 1063.3 ± 6.1 | 1060.3 ± 6.1 | 1057.3 ± 6.1 | viscosity (318.15 K): 67 ± 4 mPa·s; viscosity (323.15 K): 55 ± 4 mPa·s; mass density (338.15 K): 1054.3 ± 6 kg/m3; mass density (343.15 K): 1051.3 ± 6 kg/m3; mass density (348.15 K): 1048.4 ± 5.9 kg/m3; mass density (353.15 K): 1045.4 ± 5.9 kg/m3; Normal melting temperature (Crystal, DTA): 44 °C
